Key:
[1] = cited from earlier work
[2] = test system: dopamine transporter protein over the norepinephrine transporter protein; conditions: selectivity for dopamine transporter over norepinephrine transporter; cited from earlier work

In the case of CN1Cc2cc(-c3ccoc3)ccc2C(c2ccccc2)C1 (stereo not drawn), the melting point was 188 to 189 °C (dec.).

In the case of CN1Cc2c(N)cccc2C(c2ccccc2)C1 (stereo not drawn) [Nomofensine], the “side effect of long term administration” value [1] is listed as “fatal immune hemolytic anemia”.

In the case of COC(=O)C(c1ccccc1)C1CCCCN1 (stereo not drawn) [Methylphenidate], the “DAT/NET Ki ratio” value [2] is given as 0.1.
